Legend:
[1] = system: w794 DNA, 5'-AATTA high affinity site; test: Relative rate of DNA alkylation at the w794 5'-AATTA high affinity site; type: biochemical, SV40; conditions: 25° C.
Method: Rate of DNA Alkylation. The relative rates of DNA alkylation for the natural enantiommers of CCBI-TMI (35) and CCBI-indole2 (37) versus those of the corresponding CBI and MCBI agents were measured at the single high affinity site in w794, 5'-AATTA. The relative rates earlier studies of DNA alkylation for MCBI-TMI, CBI-TMI, and duocarmycin SA were determined to be quite similar at 4° C., 1.8:1.0:0.9, respectively. […] In prior studies, we have highlighted similar observations with agents that span a much larger range of relative reactivities.
The DNA alkylation selectivity and efficiency of the natural enantiomers of 304-307 were compared with that of 1 in w794 DNA. […] These trends in the overall efficiency of DNA alkylation parallel the relative trends in cytotoxic potency.
(§1) DNA Alkylation Relative Rate of (+)-CCBI-TMI (35), (+)-CBI-TMI, and (+)-MCBI-TMI. Following the procedure detailed above, Eppendorf tubes containing 5' end-labeled w794 DNA (9 μL) in TE buffer (pH 7.5) were treated with (+)-CCBI-TMI (35), (+)-CBI-TMI, or (+)-MCBI-TMI (1 μL, 10^-6 M in DMSO). The solutions were mixed and incubated at 25° C. for 2, 4, 6, 9, 12, 15, and 24 h, respectively. Subsequent isolation of the alkylated DNA by EtOH precipitation, resuspension in TE buffer (10 μL, pH 7.5), thermolysis (30 min, 100° C.), PAGE, and autoradiography were conducted as detailed above. Relative rates for alkylation at the w794 high-affinity 5'-AATTA site were derived from the slopes of the plots of percent integrated optical density (IOD) of the high-affinity alkylation cleavage bands versus time.
as §1, with “(+)-CCBI-indole2 (37), (+)-CBI-indole2,” for “(+)-CCBI-TMI (35), (+)-CBI-TMI,”, “(+)-MCBI-indole2.” for “(+)-MCBI-TMI.”, “(+)-CCBI-indole2 (37), (+)-CBI-indole2, and (+)-MCBI-indole2” for “(+)-CCBI-TMI (35), (+)-CBI-TMI, or (+)-MCBI-TMI”

[2] = cited from earlier work
[3] = in vivo; cited from earlier work
[4] = cited from earlier work; remark: listed apart in the source
w794 duplex DNA [5] = test: DNA alkylation selectivity and efficiency within w794 DNA, thermally-induced strand cleavage and PAGE; type: biochemical, SV40
Method in brief: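 5′-32P end-labeled w794 duplex DNA in TE buffer (pH 7.2–7.5) incubated with agent in DMSO across concentrations, 4–37 °C for 24–76 h depending on agent. Unbound agent removed by EtOH precipitation; thermolysis 100 °C, 30 min cleaves alkylation sites, mapped by denaturing 8% PAGE beside Sanger standards and autoradiography.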

[6] = In vitro cytotoxic activity (cell line not given); type: cell-based
[7] = system: w794 DNA, 5'-AATTA high affinity site; test: Relative rate of DNA alkylation at the w794 5'-AATTA high affinity site; type: biochemical, SV40; conditions: 10^-5 M, 25° C., 1-72 h
w794 duplex DNA [8] = conditions: unnatural enantiomers; prior comparison; cited from earlier work
DNA [9] = conditions: cited from earlier work
DNA [10] = conditions: cited from earlier work; remark: listed apart in the source
[11] = system: w794 DNA, 5'-AATTA high affinity site; conditions: 4° C., earlier studies, 1.8:1.0:0.9; cited from earlier work

SMILES: O=C(Nc1ccc2[nH]c(C(=O)N3CC4CC45C3=CC(=O)c3ccccc35)cc2c1)c1cc2ccccc2[nH]1 (single isomer, unassigned) [CBI-indole2]
- relative rate of DNA alkylation, indole2 series [1]: 1.0 ×
- in vivo antitumor activity [2]: potent and efficacious In vivo antitumor activity
- delayed toxicity [3]: lacked the delayed fatal toxicity
- cytotoxic potency greater than (+)-CPI-indole2 (U71,184) [4]: 4 ×

SMILES: COC(=O)c1cc2c([nH]1)C(=O)C=C1N(C(=O)c3cc4cc(OC)ccc4[nH]3)CC3CC123 (single isomer, unassigned) [compound 305]
- DNA alkylation properties, comparison in words (w794 duplex DNA [5]): essentially indistinguishable from 1 itself
- properties relative to duocarmycin SA or 304 [6]: indistinguishable
- cytotoxic activity relative to duocarmycin SA or 304 (words) ([6]; listed as (+)-305): indistinguishable from duocarmycin SA
- krel, faster than 304 [7]: 18-33

SMILES: COc1c(O)c2c(c3cc(C(=O)N4CCc5c4c(O)c(OC)c4[nH]c(C(=O)N6CC7CC78C6=CC(=O)c6[nH]cc(C)c68)cc54)[nH]c13)CCN2C(N)=O (single isomer, unassigned; (+)) [(+)-CC-1065]
- delayed toxicity [3]: delayed fatal toxicity

SMILES: COc1cc2cc(C(=O)N3CC4CC45C3=CC(=O)c3ccccc35)[nH]c2c(OC)c1OC (single isomer, unassigned; (-)) [(-)-CBI-TMI]
- distinction in DNA alkylation efficiency from ent-(-)-duocarmycin SA (w794 duplex DNA [8]): 10 ×

SMILES: Cc1c(N)nc([C@H](CC(N)=O)NC[C@H](N)C(N)=O)nc1C(=O)N[C@H](C(=O)N[C@H](C)[C@@H](O)[C@H](C)C(=O)N[C@H](C(=O)NCCc1nc(-c2nc(C(=O)NCCC[S+](C)C)cs2)cs1)[C@@H](C)O)[C@@H](O[C@@H]1O[C@@H](CO)[C@@H](O)[C@H](O)[C@@H]1O[C@H]1O[C@H](CO)[C@@H](O)[C@H](OC(N)=O)[C@@H]1O)c1c[nH]cn1.[Br-] [compound 104]
- apparent binding site size (DNA [9]): 3.8 base-pairs
- Kd (DNA [9]; dna, read-out: apparent DNA binding constant Kapp): 10 µM

SMILES: COC(=O)[C@]1(C)NC2=C(C1=O)[C@@]13C[C@@H]1CN(C(=O)c1cc4cc(OC)c(OC)c(OC)c4[nH]1)C3=CC2=O [duocarmycin A]
- adenine N3 adduct quantitated (DNA [10]): 86-92%

SMILES: COC(=O)c1cc2c([nH]1)C(=O)C=C1N(C(=O)c3cc4cc(OC)c(OC)c(OC)c4[nH]3)CC3CC123 (stereo not drawn) [duocarmycin SA]
- DNA alkylation properties, comparison in words (w794 duplex DNA [5]): exhibited the same selectivity and efficiency of DNA alkylation
- concentration of detectable alkylation of high affinity site 5'-AATTA (w794 duplex DNA [5]; 25° C., 24 h): 10^-6 to 10^-7 M
- relative rate of DNA alkylation, TMI series ([1]; 10^-6 M): 0.9 ×
- properties relative to duocarmycin SA or 304 [6]: indistinguishable
- relative rate of DNA alkylation [11]: 0.9
- krel, 1 relative to 305 [7]: 1.3-2.3
- krel, faster than 304 [7]: 18-33
- adenine N3 adduct quantitated (DNA [10]): 95-100%

Source: patent publication US6060608A, “Analogs of CC-1065 and the duocarmycins” (The Scripps Research Institute, priority 1999, dated 2000)
